Assay results published in ChEMBL document CHEMBL1201862, “PubChem BioAssay data set” (2004).
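Tested at 5 concentrations; 48 h exposure; 96-well plates; endpoints linearly interpolated, else capped at highest concentration. At the GI50, growth is halved.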 Active and inactive are the calls of the source. No stated cut-off is given here; in the data, active = GI50 up to about 1.1 µM and inactive = higher.

Experiments:
Experiment in all cases: growth of human tumour cells (NCI), 48 h
T47D = system: T47D
SF-295 = system: SF-295
MCF7 = system: MCF7
MDA-N = system: MDA-N
DU-145 = system: DU-145
K562 = system: K562
NCI/ADR-RES = system: NCI/ADR-RES
SF-268 = system: SF-268
CAKI-1 = system: CAKI-1
HL-60 = system: HL-60
A498 = system: A498
786-0 = system: 786-0
M14 = system: M14
HOP-62 = system: HOP-62
HOP-92 = system: HOP-92
LOX IMVI = system: LOX IMVI
Malme-3M = system: Malme-3M
EKVX = system: EKVX
RPMI-8226 = system: RPMI-8226
COLO 205 = system: COLO 205
HCT-116 = system: HCT-116
MDA-MB-435 = system: MDA-MB-435
SK-MEL-28 = system: SK-MEL-28
SK-MEL-5 = system: SK-MEL-5
OVCAR-4 = system: OVCAR-4
KM12 = system: KM12
BT-549 = system: BT-549
TK-10 = system: TK-10
MDA-MB-231 = system: MDA-MB-231
UACC-257 = system: UACC-257
CCRF-CEM = system: CCRF-CEM
OVCAR-5 = system: OVCAR-5
NCI-H23 = system: NCI-H23
NCI-H226 = system: NCI-H226
A549 = system: A549
UACC-62 = system: UACC-62
SK-MEL-2 = system: SK-MEL-2
SR = system: SR
RXF 393 = system: RXF 393
SF-539 = system: SF-539
PC-3 = system: PC-3
NCI-H522 = system: NCI-H522
IGROV-1 = system: IGROV-1
SN12C = system: SN12C
NCI-H460 = system: NCI-H460
HT-29 = system: HT-29
SW-620 = system: SW-620
SK-OV-3 = system: SK-OV-3
SNB-75 = system: SNB-75
Hs-578T = system: Hs-578T
OVCAR-8 = system: OVCAR-8
OVCAR-3 = system: OVCAR-3
MOLT-4 = system: MOLT-4
HCC 2998 = system: HCC 2998
U-251 = system: U-251
UO-31 = system: UO-31
SNB-19 = system: SNB-19
ACHN = system: ACHN
HCT-15 = system: HCT-15

In the case of `O=c1c2cnccc2cc2c3ccccc3ccn12`, the GI50 (T47D) is reported as 32.4 µM (inactive), the GI50 (SF-295) is reported as > 100 µM (inactive) and the GI50 (MCF7) is reported as 13.2 µM (inactive). The GI50 (MDA-N) was > 100 µM (inactive), the GI50 (DU-145) was > 100 µM (inactive) and the GI50 (K562) was 37.9 µM (inactive). The GI50 (NCI/ADR-RES) was > 100 µM (inactive), the GI50 (SF-268) was 86.1 µM (inactive) and the GI50 (CAKI-1) was 9.89 µM (inactive). The GI50 (HL-60) was 17.7 µM (inactive), the GI50 (A498) was > 100 µM (inactive) and the GI50 (786-0) was 84.7 µM (inactive). The GI50 (M14) was > 100 µM (inactive), the GI50 (HOP-62) was > 100 µM (inactive) and the GI50 (HOP-92) was > 100 µM (inactive). For the same molecule, the GI50 (LOX IMVI) was 18.9 µM (inactive), the GI50 (Malme-3M) was 57.3 µM (inactive) and the GI50 (EKVX) was 3.63 µM (inactive). For the same molecule, the GI50 (RPMI-8226) was 19.9 µM (inactive), the GI50 (COLO 205) was 63.2 µM (inactive) and the GI50 (HCT-116) was 31.8 µM (inactive). For the same molecule, the GI50 (MDA-MB-435) was 97.3 µM (inactive), the GI50 (SK-MEL-28) was > 100 µM (inactive) and the GI50 (SK-MEL-5) was 46.1 µM (inactive). For the same molecule, the GI50 (OVCAR-4) was 50.4 µM (inactive), the GI50 (KM12) was 5.64 µM (inactive) and the GI50 (BT-549) was 65.6 µM (inactive). For the same molecule, the GI50 (TK-10) was 24.3 µM (inactive), the GI50 (MDA-MB-231) was > 100 µM (inactive) and the GI50 (UACC-257) was > 100 µM (inactive). The GI50 (CCRF-CEM) was 36.6 µM (inactive), the GI50 (OVCAR-5) was > 100 µM (inactive) and the GI50 (NCI-H23) was 51.6 µM (inactive). For the same molecule, the GI50 (NCI-H226) was > 100 µM (inactive), the GI50 (A549) was 45.8 µM (inactive) and the GI50 (UACC-62) was 4.7 µM (inactive). The GI50 (SK-MEL-2) was > 100 µM (inactive), the GI50 (SR) was 2.03 µM (inactive) and the GI50 (RXF 393) was > 100 µM (inactive). For the same molecule, the GI50 (SF-539) was > 100 µM (inactive), the GI50 (PC-3) was 77.8 µM (inactive) and the GI50 (NCI-H522) was 45.6 µM (inactive). For the same molecule, the GI50 (IGROV-1) was 6.15 µM (inactive), the GI50 (SN12C) was 61.2 µM (inactive) and the GI50 (NCI-H460) was 5.78 µM (inactive). The GI50 (HT-29) was 28.2 µM (inactive), the GI50 (SW-620) was 49.8 µM (inactive) and the GI50 (SK-OV-3) was > 100 µM (inactive). The GI50 (SNB-75) was 61 µM (inactive), the GI50 (Hs-578T) was 71.8 µM (inactive) and the GI50 (OVCAR-8) was 11.6 µM (inactive). For the same molecule, the GI50 (OVCAR-3) was > 100 µM (inactive), the GI50 (MOLT-4) was 5.21 µM (inactive) and the GI50 (HCC 2998) was 53.7 µM (inactive). For the same molecule, the GI50 (U-251) was 68.4 µM (inactive), the GI50 (UO-31) was 23.1 µM (inactive) and the GI50 (SNB-19) was > 100 µM (inactive). The GI50 (ACHN) was 19.3 µM (inactive) and the GI50 (HCT-15) was 23.1 µM.
